Values after ≈ are worked out from the molar mass of the structure shown.
What was measured:
[1] = test system: C neoformans M-106; experiment: MIC determination (NCCLS broth method); assay type: cell-based, Cryptococcus neoformans; details: Cryptococcus neoformans, M106, read-out: Minimum Inhibitory Concentration (MIC)
Text: (§1) The in-vitro evaluation of the antifungal activity of the compounds can be performed by determining the minimum inhibitory concentration (MIC) as shown in Table 1 which is the concentration of the test compound in Rosewell Park Memorial Institute (RPMI) 1640 liquid medium buffered with 3-(Morpholino)propanesulphonic acid (MOPS) to pH 7, at which there is significant inhibition of the particular fungi. In practice the National Committee for Clinical Laboratory Standard (NCCLS) M27A document for Candida and Cryptococcus and M38P for Aspergillus was used to determine the MIC against yeast and filamentous fungi with suitable modifications for dermatophytes to other filamentous fungi. Three quality control strains were included each time the MIC were determined and readings recorded only when the Quality Control results fell into the acceptable range. After MIC results had been recorded, 100 μl from each of the well showing no growth was spread over Sabouraud Dextrose Agar (SDA) to determine the minimum fungicidal concentration (MFC) as shown in Table 2.

[2] = test system: C neoformans I; experiment: MIC determination (NCCLS broth method); assay type: cell-based, Cryptococcus neoformans; details: Cryptococcus neoformans, read-out: Minimum Inhibitory Concentration (MIC)
Text: as §1

[3] = test system: All Candida isolates; experiment: Comparative in vitro MIC, isolate panel; assay type: cell-based; details: for MIC50: read-out: MIC50; for MIC90: read-out: MIC90
Text: as §1
(§2) A comparative in vitro and in vivo biologically activity data of the compound of our invention, 2-{[1R,2R]-2-(2,4-Difluorophenyl)-2-hydroxy-1-methyl-3-(1H-1,2,4-triazole-1-yl)propyl}-4-[(2′,2′,3′,3′-tetrafluoropropoxyphenyl)-3-(2H,4H)-1,2,4-thiotriazolone (Compound No. 3) with 2-[(1R,2R)-2-(2,4-difluorophenyl)-2-hydroxy-1-methyl-3-(1H-1,2,4-triazol-1-yl)propyl]-4-(2′,2′,3′,3′-tetraflouropropoxyphenyl)-3(2H,4H)-1,2,4-triazolone (TAK 187) and standard antifungal pharmaceuticals is given below: […]

[4] = test system: Aspergillus fumigatus isolates; experiment: Comparative in vitro MIC, isolate panel; assay type: cell-based; details: for MIC50: read-out: MIC50; for MIC90: read-out: MIC90
Text: as §1, §2

[5] = test system: Fusarium spp. isolates; experiment: Comparative in vitro MIC, isolate panel; assay type: cell-based; details: for MIC50: read-out: MIC50; for MIC90: read-out: MIC90
Text: as §1, §2

[6] = test system: All Filamentous isolates; experiment: Comparative in vitro MIC, isolate panel; assay type: cell-based
Text: as §1, §2

[7] = test system: Rhizoupus spp. isolates; experiment: Comparative in vitro MIC, isolate panel; assay type: cell-based; details: for MIC50: read-out: MIC50; for MIC90: read-out: MIC90
Text: as §1, §2

[8] = test system: All fungal pathogens; experiment: Comparative in vitro MIC, isolate panel; assay type: cell-based
Text: as §1, §2

[9] = test system: Penicillium spp. isolates; experiment: Comparative in vitro MIC, isolate panel; assay type: cell-based; details: for MIC50: read-out: MIC50; for MIC90: read-out: MIC90
Text: as §1, §2

[10] = test system: Fusarium (Ceylon); experiment: MFC determination (subculture on Sabouraud Dextrose Agar); assay type: cell-based; details: read-out: Minimum Fungicidal Concentration (MFC)
Text: as §1

[11] = test system: Fusarium 18270; experiment: as above; assay type: cell-based; details: Fusarium, 18270, read-out: Minimum Fungicidal Concentration (MFC)
Text: as §1

[12] = test system: Alternaria 1051; experiment: as above; assay type: cell-based; details: read-out: Minimum Fungicidal Concentration (MFC)
Text: as §1

[13] = test system: A flavus P3 - 1041; experiment: as above; assay type: cell-based; details: read-out: Minimum Fungicidal Concentration (MFC)
Text: as §1

[14] = test system: Penicillium 2306; experiment: as above; assay type: cell-based; details: read-out: Minimum Fungicidal Concentration (MFC)
Text: as §1

[15] = test system: Penicillium 2548; experiment: as above; assay type: cell-based; details: read-out: Minimum Fungicidal Concentration (MFC)
Text: as §1

[16] = test system: A flavus E4 - 1042; experiment: as above; assay type: cell-based; details: read-out: Minimum Fungicidal Concentration (MFC)
Text: as §1

[17] = test system: A niger P1 - 1046; experiment: as above; assay type: cell-based; details: read-out: Minimum Fungicidal Concentration (MFC)
Text: as §1

[18] = test system: C parapsilosis 22019; experiment: as above; assay type: cell-based; details: read-out: Minimum Fungicidal Concentration (MFC)
Text: as §1

[19] = test system: A niger E5 - 1047; experiment: as above; assay type: cell-based; details: read-out: Minimum Fungicidal Concentration (MFC)
Text: as §1

[20] = test system: Fusarium 29600; experiment: as above; assay type: cell-based; details: Fusarium, 29600, read-out: Minimum Fungicidal Concentration (MFC)
Text: as §1

[21] = test system: Penicillium I - 1049; experiment: as above; assay type: cell-based; details: I1049, read-out: Minimum Fungicidal Concentration (MFC)
Text: as §1

[22] = test system: Penicillium 31620; experiment: as above; assay type: cell-based; details: read-out: Minimum Fungicidal Concentration (MFC)
Text: as §1

[23] = test system: Rhizopus (Ceylon); experiment: as above; assay type: cell-based; details: read-out: Minimum Fungicidal Concentration (MFC)
Text: as §1

[24] = test system: A flavus P2 - 1045; experiment: as above; assay type: cell-based; details: read-out: Minimum Fungicidal Concentration (MFC)
Text: as §1

[25] = test system: Mucor (Ceylon); experiment: as above; assay type: cell-based; details: read-out: Minimum Fungicidal Concentration (MFC)
Text: as §1

[26] = test system: C krusei 6258; experiment: as above; assay type: cell-based; details: read-out: Minimum Fungicidal Concentration (MFC)
Text: as §1

[27] = test system: Rhizopus 1052; experiment: as above; assay type: cell-based; details: read-out: Minimum Fungicidal Concentration (MFC)
Text: as §1

[28] = test system: A flavus E3 - 1044; experiment: as above; assay type: cell-based; details: read-out: Minimum Fungicidal Concentration (MFC)
Text: as §1

[29] = test system: Penicillium 191; experiment: as above; assay type: cell-based; details: read-out: Minimum Fungicidal Concentration (MFC)
Text: as §1

[30] = test system: Penicillium 1641; experiment: as above; assay type: cell-based; details: read-out: Minimum Fungicidal Concentration (MFC)
Text: as §1

[31] = test system: Penicillium H - 1048; experiment: as above; assay type: cell-based; details: H1048, read-out: Minimum Fungicidal Concentration (MFC)
Text: as §1

[32] = test system: Aspergillus fumigatous; experiment: In vivo anti-fungal activity, ED50 in systemically infected mice; design: species or system Swiss albino mice; details: mice infected i.v. with Aspergillus fumigatous, dosing for five days
Method: The in-vivo evaluation of the compound can be carried out at a series of dose levels by oral or I. V. injection to mice which are inoculated I.V. with the minimum lethal dose of Candida albicans, Cryptococcus neoformans or Aspergillus fumigatus by the tail vein. Activity is based on the survival of a treated group of mice after the death of an untreated group of mice. For Aspergillus and Cryptococcus infections, target organs were cultured after treatment to document the number of mice cured of the infection for further assessment of activity.
Method: Briefly, Swiss albino mice weighing 20±2 G were injected intravenously (tail vein) with sufficient fungal cells to kill 100% of the untreated animals for Aspergillus fumigatous strain used. In all cases each group comprised of six mice. Five does levels, utilizing doubling dilution range, were employed per determination ranging from 25 to 1.56 mg/kg BW. Dosing was carried out for five days starting after 30 minutes of infection. […] Treated animals were monitored twice daily for 14 days post infection at which time the experiment was terminated and ED50 was calculated.

Work on OC(Cn1cncn1)(Cn1cncn1)c1ccc(F)cc1F [Fluconazole] yielded an MIC [1] of 4 µg/mL (≈ 13.1 µM), an MIC [2] of 1 µg/mL (≈ 3.27 µM) and an MIC [3] of 5.3 µg/mL (≈ 17.3 µM). It also gave an MIC50 [3] of 8 µg/mL (≈ 26.1 µM), an MIC90 [3] of 128 µg/mL (≈ 418 µM) and an MIC [4] of 256 µg/mL (≈ 836 µM). The MIC50 [4] was 256 µg/mL (≈ 836 µM), the MIC90 [4] was 256 µg/mL (≈ 836 µM) and the MIC [5] was 256 µg/mL (≈ 836 µM). The MIC50 [5] was 256 µg/mL (≈ 836 µM), the MIC90 [5] was 256 µg/mL (≈ 836 µM) and the MIC [6] was 199 µg/mL (≈ 650 µM). It also gave an MIC [7] of 256 µg/mL (≈ 836 µM), an MIC50 [7] of 256 µg/mL (≈ 836 µM) and an MIC90 [7] of 256 µg/mL (≈ 836 µM). The MIC [8] was 105 µg/mL (≈ 343 µM), the MIC [9] was 174 µg/mL (≈ 569 µM) and the MIC50 [9] was 256 µg/mL (≈ 836 µM). For the same compound, the MIC90 [9] was 256 µg/mL (≈ 836 µM), the MFC [10] was greater than 128 µg/mL and the MFC [11] was greater than 128 µg/mL. It also gave an MFC [12] greater than 128 µg/mL, an MFC [13] greater than 128 µg/mL and an MFC [14] greater than 128 µg/mL. The MFC [15] was greater than 128 µg/mL, the MFC [16] was greater than 128 µg/mL and the MFC [17] was greater than 128 µg/mL. For the same compound, the MFC [18] was 4 µg/mL (≈ 13.1 µM), the MFC [19] was greater than 128 µg/mL and the MFC [20] was greater than 128 µg/mL. It also gave an MFC [21] greater than 128 µg/mL, an MFC [22] greater than 128 µg/mL and an MFC [23] greater than 128 µg/mL. It also gave an MFC [24] greater than 128 µg/mL, an MFC [25] greater than 128 µg/mL and an MFC [26] of 128 µg/mL (≈ 418 µM). For the same compound, the MFC [27] was greater than 128 µg/mL, the MFC [28] was greater than 128 µg/mL and the MFC [29] was greater than 128 µg/mL. The MFC [30] was greater than 128 µg/mL and the MFC [31] was greater than 128 µg/mL.
CCC(C)n1ncn(-c2ccc(N3CCN(c4ccc(OCC5COC(Cn6cncn6)(c6ccc(Cl)cc6Cl)O5)cc4)CC3)cc2)c1=O (stereo not shown) [Itraconazole] gave an MIC [1] of 0.03 µg/mL (≈ 0.0425 µM), an MIC [2] of 0.03 µg/mL (≈ 0.0425 µM) and an ED50 ([32]; Day 7 post infection) of 8.84 mg/kg body weight. For the same compound, the ED50 ([32]; Day 14 post infection) was 21.02 mg/kg body weight, the MIC [3] was 0.1 µg/mL (≈ 0.142 µM) and the MIC50 [3] was 0.25 µg/mL (≈ 0.354 µM). For the same compound, the MIC90 [3] was 0.5 µg/mL (≈ 0.709 µM), the MIC [4] was 0.181 µg/mL (≈ 0.257 µM) and the MIC50 [4] was 0.25 µg/mL (≈ 0.354 µM). It also gave an MIC90 [4] of 0.5 µg/mL (≈ 0.709 µM), an MIC [5] of 90.5 µg/mL (≈ 128 µM) and an MIC50 [5] of 64 µg/mL (≈ 90.7 µM). For the same compound, the MIC90 [5] was 256 µg/mL (≈ 363 µM), the MIC [6] was 0.6 µg/mL (≈ 0.85 µM) and the MIC50 ([6]; read-out: MIC50) was 0.25 µg/mL (≈ 0.354 µM). For the same compound, the MIC90 ([6]; read-out: MIC90) was 256 µg/mL (≈ 363 µM), the MIC [7] was 32 µg/mL (≈ 45.3 µM) and the MIC50 [7] was 16 µg/mL (≈ 22.7 µM). For the same compound, the MIC90 [7] was 64 µg/mL (≈ 90.7 µM), the MIC [8] was 0.437 µg/mL (≈ 0.619 µM) and the MIC50 ([8]; read-out: MIC50) was 0.19 µg/mL (≈ 0.269 µM). It also gave an MIC90 ([8]; read-out: MIC90) of 256 µg/mL (≈ 363 µM), an MIC [9] of 0.922 µg/mL (≈ 1.31 µM) and an MIC50 [9] of 0.5 µg/mL (≈ 0.709 µM). The MIC90 [9] was 256 µg/mL (≈ 363 µM), the MFC [10] was greater than 128 µg/mL and the MFC [11] was 128 µg/mL (≈ 181 µM). For the same compound, the MFC [12] was 32 µg/mL (≈ 45.3 µM), the MFC [13] was 0.06 µg/mL (≈ 0.085 µM) and the MFC [14] was 16 µg/mL (≈ 22.7 µM). It also gave an MFC [15] of 0.06 µg/mL (≈ 0.085 µM), an MFC [16] of 0.125 µg/mL (≈ 0.177 µM) and an MFC [17] of 0.25 µg/mL (≈ 0.354 µM). The MFC [18] was 8 µg/mL (≈ 11.3 µM), the MFC [19] was 0.125 µg/mL (≈ 0.177 µM) and the MFC [20] was greater than 128 µg/mL. It also gave an MFC [21] greater than 128 µg/mL, an MFC [22] of 1 µg/mL (≈ 1.42 µM) and an MFC [23] of 128 µg/mL (≈ 181 µM). It also gave an MFC [24] of 0.25 µg/mL (≈ 0.354 µM), an MFC [25] greater than 128 µg/mL and an MFC [26] of 64 µg/mL (≈ 90.7 µM). For the same compound, the MFC [27] was 8 µg/mL (≈ 11.3 µM), the MFC [28] was 0.03 µg/mL (≈ 0.0425 µM) and the MFC [29] was 0.06 µg/mL (≈ 0.085 µM). The MFC [30] was 0.06 µg/mL (≈ 0.085 µM) and the MFC [31] was greater than 128 µg/mL.

— patent publication US6710049B2, “Azole compounds as anti-fungal agents” (Ranbaxy Laboratories Limited, priority 2000, dated 2004)
